In general, inhibition refers to the relative decrease from the control value, in per cent. A high value points to strong suppression.

Inhibition data for 2 molecules are collected here from ChEMBL document CHEMBL1151638, “Hippamine, a Minor Alkaloid From Sternbergia lutea” (1984).

The test system of this test is Solanum tuberosum. Nature of the test: Inhibition of ascorbic acid biosynthesis in potato tuber at 20 uM. The class given is functional.

In turn, `CO[C@H]1C=C2CCN3Cc4cc5c(cc4[C@H]([C@@H]1O)[C@@H]23)OCO5` [HIPPPAMINE] registered an inhibition at 20 µM of 58%. Next, `O[C@H]1[C@H]2c3cc4c(cc3CN3CCC(=C[C@@H]1O)[C@H]23)OCO4` [LYCORINE]: 80%.
